{
  "source": "patent US10525143B2",
  "about": "“Conjugate of polyethylene glycol and anesthetic, and preparation method thereof” (JenKem Technology Co., Ltd. (Tianjin), priority 2015, dated 2020)",
  "key": {"[1]": {"system": "SD rats", "assay": "Von Frey test in rat incisional pain model (Brennan method)", "type": "in vivo", "conditions": "for Von Frey Hairs (g) 1 h: paw withdrawal threshold 1 h after surgery; for Von Frey Hairs (g) 1 h / Von Frey Hairs (g) 3 h / Von Frey Hairs (g) 6 h / Von Frey Hairs (g) 12 h / Von Frey Hairs (g) 24 h: injected in the incision, 10 mg/kg (counted by lidocaine) or 4 mg/kg (counted by bupivacaine); for Von Frey Hairs (g) 1 h / Von Frey Hairs (g) 3 h / Von Frey Hairs (g) 6 h / Von Frey Hairs (g) 12 h / Von Frey Hairs (g) 24 h / Von Frey Hairs (g) Basline: x±s; for Von Frey Hairs (g) 3 h: paw withdrawal threshold 3 h after surgery; for Von Frey Hairs (g) 6 h: paw withdrawal threshold 6 h after surgery; for Von Frey Hairs (g) 12 h: paw withdrawal threshold 12 h after surgery; for Von Frey Hairs (g) 24 h: paw withdrawal threshold 24 h after surgery; for Von Frey Hairs (g) Basline: paw withdrawal threshold before surgery and administration, 6 rats per group"}, "[2]": {"conditions": "background statement; cited from earlier work"}, "[3]": {"conditions": "single dose injected; postoperative pain; background statement; cited from earlier work"}},
  "note": "Counter-ions that a name gives are not always drawn.",
  "data": [
    {"compound": "CCCCN1CCCCC1C(=O)Nc1c(C)cccc1C", "note": "(stereo not drawn) [Bupivacaine hydrochloride]", "values": [
      {"measurement": "duration of analgesia (in words)", "setting": "[1]; discussion of Table 1", "value": "relatively long duration"},
      {"measurement": "onset of analgesic effect (in words)", "setting": "[1]; discussion of Table 1", "value": "takes effect more slowly than lidocaine hydrochloride"},
      {"measurement": "Von Frey Hairs (g) 1 h", "setting": "[1]", "value": "4.3 ± 0.7", "unit": "g"},
      {"measurement": "Von Frey Hairs (g) 3 h", "setting": "[1]", "value": "6.6 ± 0.4", "unit": "g"},
      {"measurement": "Von Frey Hairs (g) 6 h", "setting": "[1]", "value": "5.3 ± 0.5", "unit": "g"},
      {"measurement": "Von Frey Hairs (g) 12 h", "setting": "[1]", "value": "3.4 ± 0.9", "unit": "g"},
      {"measurement": "Von Frey Hairs (g) 24 h", "setting": "[1]", "value": "1.7 ± 0.4", "unit": "g"},
      {"measurement": "Von Frey Hairs (g) Basline", "setting": "[1]", "value": "7.3 ± 0.7", "unit": "g"}
    ]},
    {"compound": "CCCN1CCCC[C@H]1C(=O)Nc1c(C)cccc1C", "note": "[ropivacaine]", "values": [
      {"measurement": "duration of the drug (local anesthesia)", "setting": "[2]", "value": 4.4, "unit": "h"}
    ]},
    {"compound": "CCN(CC)CC(=O)Nc1c(C)cccc1C", "note": "[Lidocaine hydrochloride]", "values": [
      {"measurement": "Von Frey Hairs (g) 1 h", "setting": "[1]", "value": "6.6 ± 0.5", "unit": "g"},
      {"measurement": "Von Frey Hairs (g) 3 h", "setting": "[1]", "value": "6.1 ± 0.4", "unit": "g"},
      {"measurement": "Von Frey Hairs (g) 6 h", "setting": "[1]", "value": "4.0 ± 0.6", "unit": "g"},
      {"measurement": "Von Frey Hairs (g) 12 h", "setting": "[1]", "value": "1.5 ± 0.4", "unit": "g"},
      {"measurement": "Von Frey Hairs (g) 24 h", "setting": "[1]", "value": "1.4 ± 0.2", "unit": "g"},
      {"measurement": "Von Frey Hairs (g) Basline", "setting": "[1]", "value": "7.5 ± 0.8", "unit": "g"}
    ]},
    {"compound": "CCCCN1CCCCC1C(=O)Nc1c(C)cccc1C", "note": "(stereo not drawn) [Bupivacaine]", "values": [
      {"measurement": "duration of analgesic effect", "setting": "[3]", "value": "less than 7 h"}
    ]},
    {"compound": "CCN(CC)CC(=O)Nc1c(C)cccc1C", "note": "[lidocaine]", "values": [
      {"measurement": "duration of the drug (local anesthesia)", "setting": "[2]", "value": "1 to 2", "unit": "h"}
    ]},
    {"compound": "CCCCN1CCCC[C@H]1C(=O)Nc1c(C)cccc1C", "note": "[L-bupivacaine]", "values": [
      {"measurement": "duration of the drug (local anesthesia)", "setting": "[2]", "value": "5 to 7", "unit": "h"}
    ]}
  ]
}
